Assay results as given in ChEMBL document CHEMBL1144335, “7alpha,11beta-Dimethyl-19-nortestosterone: a potent and selective androgen response modulator with prostate-sparing properties” (Bioorg Med Chem Lett, 2005).

Key:
[1] = target: T1, Androgen receptor (Rattus norvegicus) (UniProt P15207); assay: Relative binding affinity for rat androgen receptor compared to dihydrotestosterone (100) (n=4)
T1 sequence (whole entry): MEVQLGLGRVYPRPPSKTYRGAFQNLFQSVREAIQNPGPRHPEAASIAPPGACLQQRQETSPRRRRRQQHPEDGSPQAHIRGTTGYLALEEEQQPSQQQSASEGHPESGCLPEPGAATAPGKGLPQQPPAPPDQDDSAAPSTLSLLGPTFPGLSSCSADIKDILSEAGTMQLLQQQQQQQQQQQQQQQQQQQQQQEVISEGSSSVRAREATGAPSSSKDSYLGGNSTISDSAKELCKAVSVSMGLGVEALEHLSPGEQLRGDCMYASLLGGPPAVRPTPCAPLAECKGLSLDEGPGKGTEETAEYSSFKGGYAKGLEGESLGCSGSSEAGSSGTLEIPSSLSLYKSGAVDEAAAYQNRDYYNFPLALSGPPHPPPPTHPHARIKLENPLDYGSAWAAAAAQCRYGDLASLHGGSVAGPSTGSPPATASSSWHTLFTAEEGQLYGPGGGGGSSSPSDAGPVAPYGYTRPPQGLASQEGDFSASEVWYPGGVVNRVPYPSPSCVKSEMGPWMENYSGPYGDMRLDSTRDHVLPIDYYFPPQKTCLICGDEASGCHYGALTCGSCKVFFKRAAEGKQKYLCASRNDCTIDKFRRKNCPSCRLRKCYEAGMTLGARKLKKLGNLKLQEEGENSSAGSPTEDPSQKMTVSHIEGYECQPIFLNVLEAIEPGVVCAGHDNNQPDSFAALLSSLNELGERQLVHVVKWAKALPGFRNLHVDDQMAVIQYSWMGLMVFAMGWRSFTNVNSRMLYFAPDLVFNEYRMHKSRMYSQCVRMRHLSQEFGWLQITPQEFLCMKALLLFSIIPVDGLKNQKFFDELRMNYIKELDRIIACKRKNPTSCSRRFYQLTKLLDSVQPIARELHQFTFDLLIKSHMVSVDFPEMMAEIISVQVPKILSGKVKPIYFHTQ

[2] = target: Estrogen receptor (Rattus norvegicus) (UniProt P06211+Q62986); assay: Binding affinity for estrogen receptor in rat (n=3)

SMILES	Binding affinity [1]	Binding affinity [2]
C[C@@H]1CC2=CC(=O)CCC2C2C1C1CC[C@H](O)[C@@]1(C)C[C@@H]2C (stereo partly drawn)	194	0.6
C[C@H]1C[C@@]2(C)C(CC[C@@H]2O)C2C1C1CCC(=O)C=C1C[C@@H]2C (stereo partly drawn)	22	–
